Data set [1] in a line: Cytotoxicity against mouse J774.A1 cells assessed as reduction in cell viability by MTT assay. Type of data set: toxicity, cell-based.
Data set [2] concerns Leishmania infantum. Kind of data set: Antileishmanial activity against Leishmanial infantum amastigotes assessed as inhibition of parasite growth measured after 72 hrs by MTT assay. Type of data set: functional, organism-based. (In general: Tetrazolium dyes change colour on reduction, which living cells bring about.)
The subject of data set [3] is HepG2. Kind of data set: Cytotoxicity against human HepG2 cells assessed as growth inhibition of cells measured for 48 hrs by MTT assay. Type of data set: functional, cell-based. The note with it: HepG2, 48 h.
Data set [4] deals with Leishmania infantum. Kind of data set: Antileishmanial activity against Leishmania infantum promastigote assessed as inhibition of parasite growth after 72 hrs by MTT assay. Type of data set: functional, organism-based.
In data set [5] the test system is Leishmania infantum. Briefly: Antileishmanial activity against Leishmania infantum LEM 3049 isolate promastigote assessed as reduction in parasite growth after 72 hrs by MTT assay. The settings on record: LEM 3049, 72 h. Type of data set: functional, organism-based.
The subject of data set [6] is Leishmania infantum. Briefly: Antileishmanial activity against Leishmania infantum promastigotes infected in BALB/c mouse macrophages assessed as reduction in parasite load in spleen at 7.7 mg/kg, po administered twice as day for 5 days relative to control. Type of data set: functional. The arrangement: scale not given: the % may be the effect or the level left. The settings on record: time 5 day.

Data set [7] in a line: Cytotoxicity against mouse Peritoneal macrophages assessed as reduction in cell viability incubated for 24 hrs by MTT assay. Type of data set: toxicity, cell-based, Peritoneal macrophage.
The subject of data set [8] is Leishmania infantum. Kind of data set: Antileishmanial activity against Leishmania infantum promastigotes infected in BALB/c mouse macrophages assessed as reduction in parasite load in liver at 7.7 mg/kg, po administered twice as day for 5 days relative to control. Also on record: scale not given: the % may be the effect or the level left. Type of data set: functional. The settings on record: time 5 day.

The test system of data set [9] is Leishmania infantum. Briefly: Antileishmanial activity against Leishmania infantum MHOM/BR/1972/LD intracellular amastigotes infected in mouse J774A.1 macrophages cells assessed as reduction in parasite viability after 72 hrs by MTT based analysis. Type of data set: functional, organism-based. The settings on record: J774.A1, 72 h.
For data set [10], the system named is Leishmania donovani. Kind of data set: Antileishmanial activity against Leishmania donovani MHOM/IN/95/9515 assessed as reduction in parasite growth measured for 72 hrs by resazurin dye based analysis. Type of data set: functional, organism-based. The settings on record: MHOM/IN/95/9515, 72 h. For orientation: The colour change of resazurin is a common sign of viable cells or microbes.

Data set [11] can be described thus: Selectivity index, ratio of CC50 for cytotoxicity against HEK293 cells to IC50 for antileishmanial activity against Leishmania major IR-173 promastigotes. Type of data set: toxicity, cell-based. The note with it: human, read-out: Ratio CC50/IC50.
Data set [12] relates to Leishmania major. Briefly: Antileishmanial activity against Leishmania major MHOM/IR/-173 assessed as reduction in parasite viability measured for 48 hrs by alamar-blue dye based analysis. Type of data set: functional, organism-based. The settings on record: MHOM/IR/-173, 48 h.
Data set [13] concerns Leishmania major. Kind of data set: Antileishmanial activity against Leishmania major MHOM/IN/95/9515 amastigotes assessed as reduction in cell growth. Type of data set: functional, organism-based.
Data set [14] deals with Leishmania donovani. Kind of data set: Antileishmanial activity against Leishmania donovani MHOM/SD/62/1S amastigotes assessed as reduction in cell growth. Type of data set: functional, organism-based.
Data set [15] can be described thus: Cytotoxicity against mouse RAW264.7 cells assessed as reduction in cell viability measured after 48 hrs by MTT assay. Type of data set: toxicity, cell-based.
Data set [16] relates to Leishmania infantum. Kind of data set: Antileishmanial activity against Leishmania infantum promastigote after 72 hrs by MTT assay. Type of data set: functional, organism-based.
Data set [17] has as its system Leishmania donovani. Kind of data set: Antileishmanial activity against Leishmania donovani amastigotes MHOM/SD/62/1S assessed as inhibition of cell growth measured after 48 hrs by resazurin dye based assay. Type of data set: functional, organism-based.
The nature of data set [18]: Cytotoxicity against African green monkey Vero cells assessed as reduction in cell viability by MTT assay. Type of data set: toxicity, cell-based, Chlorocebus sabaeus.
The subject of data set [19] is Leishmania tropica. Briefly: Antileishmanial activity against Leishmania tropica MHOM/A7/1974/SAF-K27 assessed as reduction in parasite growth incubated for 48 hrs by Neubauer hemocytometer analysis. Type of data set: functional, organism-based. The settings on record: MHOM/A7/1974/SAF-K27, 48 h.
Data set [20] concerns Leishmania donovani. Kind of data set: Antileishmanial activity against Leishmania donovani 9515 amastigotes assessed as inhibition of parasite growth incubated for 48 hrs by resazurin dye based assay. Type of data set: functional, organism-based. The note with it: Leishmania donovani, 9515, 48 h.
Data set [21] concerns Leishmania donovani. Briefly: Antileishmanial activity against Leishmania donovani promastigotes MHOM/SD/62/1S assessed as inhibition of cell growth measured after 48 hrs by resazurin dye based assay. Type of data set: functional, organism-based.
In data set [22] the test system is Leishmania amazonensis. Kind of data set: Antileishmanial activity against Leishmania amazonensis promastigotes assessed as reduction in parasite viability after 72 hrs by CCK-8 assay. Type of data set: functional, organism-based.
Data set [23] concerns Leishmania braziliensis. Kind of data set: Antileishmanial activity against Leishmania braziliensis promastigotes assessed as reduction in parasite viability after 72 hrs by CCK-8 assay. Type of data set: functional, organism-based.
Data set [24] relates to Leishmania amazonensis. Kind of data set: Antileishmanial activity against Leishmania amazonensis MHOM/BR/1989/166MJO promastigotes infected in mouse peritoneal macrophage assessed as inhibition of parasite growth measured for 24 hrs by MTT assay. Type of data set: functional, organism-based. The settings on record: Peritoneal macrophage cell.
In data set [25] the test system is Leishmania infantum. Briefly: Antileishmanial activity against Leishmania infantum amastigotes infected in human THP-1 cells assessed as reduction in parasite growth. Type of data set: functional, organism-based.
Data set [26] is described as follows: Cytotoxicity against human WI-38 cells assessed as reduction in cell viability incubated for 48 hrs by MTT assay. Type of data set: toxicity, cell-based.
The test system of data set [27] is Leishmania infantum. Briefly: Antileishmanial activity against Leishmania infantum MHOM/FR/2008/LEM5700 infected in BALB/c mouse assessed as reduction of parasite burden in liver at 10 mg/kg, po administered for 5 days relative to control. Type of data set: functional. Also on record: scale not given: the % may be the effect or the level left. The note with it: time 5 day.

In data set [28] the test system is Leishmania major. Briefly: Antileishmanial activity against Leishmania major promastigotes assessed as reduction in parasite growth incubated for 48 hrs by MTT assay. Type of data set: functional, organism-based.
The subject of data set [29] is Leishmania donovani. Briefly: Antileishmanial activity against Leishmania donovani promastigotes assessed as inhibition of parasite growth. Type of data set: functional, organism-based.
In data set [30] the test system is Leishmania donovani. Briefly: Antileishmanial activity against Leishmania donovani amastigotes assessed as inhibition of parasite growth. Type of data set: functional, organism-based.
Data set [31] deals with Leishmania amazonensis. Kind of data set: Antileishmanial activity against Leishmania amazonensis promastigotes assessed as reduction in parasite viability incubated for 48 hrs by MTT assay. Type of data set: functional, organism-based.

With `NC(=S)N/N=C(/C=C/c1cccnc1)c1cccc(NC(=O)Nc2ccc(Cl)cc2)c1`, in [1], the IC50 came to 3.81 µM.

On to `O=C(CCCc1cc2ccccc2[nH]1)Nc1nc2ccccc2c2ccccc12`, for which the results for the EC50 in data set [2] and in data set [4] were 8.9 µM and 8.53 µM, respectively. The IC50 in data set [3] was 10 nM.

As for `O=C(N/N=C1\C(=O)N(CC(O)COc2cc(=O)oc3ccccc23)c2ccccc21)c1ccncc1` (stereo unspecified), in [5], the half-maximal inhibitory concentration (IC50) was 30 nM.

Take `NC(=O)N/N=C/c1ccc(Oc2no[n+]([O-])c2-c2ccccc2)cc1`: the Activity in [6] and in [8] was 90% throughout. In addition, the CC50 at 24 h in data set [7] turned out to be 500 µM. For the same compound, the concentration giving a half-maximal response (EC50) in data set [9] was 3.6 µM.

For the compound `Cc1ccc(Cn2cc(COC3=CC(=O)c4ccccc4C3=O)nn2)cc1`, the IC50 in data set [10] was 810 nM; in data set [12] it was 1480 nM. In addition, the selectivity ratio in data set [11] is above 55.

With `Cc1ccc2c(NCCCN(C)C(=O)c3cccc(/C=C/C(=O)c4ccc(C)o4)c3)ccnc2c1`, the concentration for half-maximal inhibition (IC50) in [13] was 1140 nM; in data set [14], 1080 nM.

Turning to `O=C(/C=C/c1ccc(F)cc1)c1ccccc1Cl`, the CC50 at 48 h in [15] was 479 µM. In [16], the half-maximal inhibitory concentration (IC50) is 74.1 µM.

As to `O=C(N/N=C\c1ccc([N+](=O)[O-])o1)c1ccc(OS(=O)(=O)c2cccnc2)cc1`, the concentration for half-maximal inhibition (IC50) stood at 90 nM in data set [17]; 3.26 µM in [18]; 40 nM in data set [19]; 90 nM in [20]; 90 nM in [21].

Consider `COc1cc(OC)c(C(=O)/C=C/c2cccc(C)c2)c([N+](=O)[O-])c1`, for which the concentration for a half-maximal effect (EC50) was found to be 420 nM in data set [22] and 1450 nM in data set [23].

As to `COc1cc(C(=O)/C=C/c2ccc([N+](=O)[O-])cc2)c(C(C)=O)c2c(OC)cccc12`, the 50% inhibitory concentration (IC50) in data set [24] came to 18.5 µM.

On to `COc1ccc(Br)cc1CN(C)C12CC3CC(CC(C3)C1)C2`, for which the half-maximal inhibitory concentration (IC50) in data set [25] was 320 nM. Moreover, the CC50 at 48 h in data set [26] worked out at 63.7 µM. In addition, the Activity in data set [27] is listed as 59%.

Turning to `COc1ccc(C(=O)NC(=S)Nc2nc(-c3ccccc3)c(C)s2)cc1`, in [28], the half-inhibitory concentration (IC50) was determined as 84.8 µM.

For `Cc1cc(O)c(C(=O)Nc2ccccc2)c(=O)n1Cc1ccc(F)cc1`, the half-inhibitory concentration (IC50) was 55 µM in data set [29] and 55.8 µM in [30].

Turning to `O=C(CCc1ccc(O)c(O)c1)O[C@H](Cc1ccc(O)cc1)C(=O)O`, the IC50 in data set [31] is 19 µM.

The term IC50 denotes the midpoint of a concentration-inhibition curve. In general, EC50 refers to the concentration that produces a half-maximal response. What is called CC50 is the concentration giving 50% cytotoxicity.

For the origin of these results see ChEMBL document CHEMBL5528001, “Synthetic product-based approach toward potential antileishmanial drug development” (Eur J Med Chem, 2024).
